Source: patent US20220072014A1, “PHARMACEUTICAL COMPOSITION WHICH COMPRISES THE COMBINATION OF A SELECTIVE INHIBITOR OF CYCLOOXYGENASE 2 AND A CARBAMATE DERIVED FROM GUAIFENESIN FOR TREATING PAIN, INFLAMMATION AND MUSCULAR CONTRACTION” (priority 2018, published 2022)

Tests used:
[1] = oral route, cited from earlier work
[2] = tested on: gout arthritis induced by intra-articular uric acid; test: pain-induced functional impairment in the rat model (PIFIR model), uric acid-induced gout arthritis; assay type: in vivo, male Wistar rats
Experimental: All experiments were performed during the light phase of the light/darkness cycles.

rats (lethality) = test: preclinical toxicity (lethality) study after oral administration; assay type: in vivo, male Wistar rats
Description: In order to determine the possible antinociceptive and toxic effects of the combination, male Wistar rats [Crl:(WI)fBR] with a weight of 180-200 g were used. All experimental procedures complied with the recommendations of the Committee for Research and Ethical Issues of the International Association for the Study of Pain (Covino et al., 1980) and the Guidelines on Ethical Standards for Investigations of Experimental Pain in Animals (Zimmermann 1983). The number of experimental animals was kept to a minimum (6 animals per experimental point for antinociceptive effects and 10 animals per experimental point for adverse effects:lethality). The rats were kept in a room with alternating light/darkness cycles. For twelve hours before the antinociception experiments rats fasted but had free access to water. All experiments were performed during the light phase of the light/darkness cycles.
The lethal toxic effects after single administrations were determined in 3 post-treatment timepoints, 24, 48 and 72 hours, in order to determine the corresponding DRC (death).

[3] = weight gain of experimental animals; assay type: in vivo, rats; settings: celecoxib doses used for the chronic treatment DRC, alone or combined
[4] = FDA prescribing information; cited from earlier work
[5] = tested on: arthrosis and rheumatoid arthritis (RA) patients; settings: patients without concomitant ASA; cited from earlier work

Compound	time to peak action ([1]; humans) [h]	time to reach active levels [1] [min]	antinociceptive effect during the assessment period ([2]; methocarbamol 50 mg/Kg alone, oral, 4-hour assessment)	dose causing lethality effects within 24 hours (rats (lethality))	effect on normal weight gain [3]	estimated effective half-life [4] [h]	GI bleeding incidence [5]	maximal effect (% FI) ([2]; 2.5 h after oral administration, celecoxib 1,000 mg/Kg alone or with methocarbamol 50 mg/Kg) [%]	effect four hours after being administered (% FI) ([2]; 4 h after oral administration, celecoxib 1,000 mg/Kg alone or with methocarbamol 50 mg/Kg) [%]	ED50 ([2]; Rattus norvegicus, po, read-out: ED50 (antinociceptive dose-response curve)) [mg/kg]	peak antinociceptive effectiveness (AUC of temporal course, global antinociceptive effect) ([2]; oral, acute administration, 4-hour assessment, most efficacious dose celecoxib 1,000 mg/Kg (combination with methocarbamol 50 mg/Kg))	dose at which the lethality DRC begins (rats (lethality); 24 hours) [mg/kg]
COc1ccccc1OCC(O)COC(N)=O (stereo not drawn) [methocarbamol, 3-(2-methoxyphenoxy)-1,2-propanediol 1-carbamate]	≤ 2	≤ 30	did not produce any antinociceptive effect whatsoever	1,000 mg/Kg	–	–	–	–	–	–	–	–
Cc1ccc(-c2cc(C(F)(F)F)nn2-c2ccc(S(N)(=O)=O)cc2)cc1 [celecoxib, 4-[5-(4-methylphenyl)-3-(trifluoromethyl)-1H-pyrazol-1-yl]benzenesulfonamide]	–	–	–	–	does not modify the normal weight gain	8 to 12	lower GI bleeding incidence	63.6±9.9	62.5±7.0	51.1	191.9±27.2 area units (au)	17800
